This passage reports LC50 results from ChEMBL document CHEMBL1155022, “Aerucyclamides A and B: isolation and synthesis of toxic ribosomal heterocyclic peptides from the cyanobacterium Microcystis aeruginosa PCC 7806” (J Nat Prod, 2008).

For orientation: LC50 means the concentration lethal to half of the exposed cells or organisms.

The data set can be described thus: Acute grazer toxicity against Thamnocephalus platyurus after 24 hrs. Particulars: in vivo. Format: organism-based.

On to `CC[C@H](C)[C@@H]1NC(=O)[C@H]2CSC(=N2)[C@@H]([C@@H](C)CC)NC(=O)c2csc(n2)CNC(=O)[C@H]2N=C1O[C@@H]2C` [AERUCYCLAMIDE A], for which the LC50 at 24 h was 30.5 µM. Under `CC[C@H](C)[C@@H]1NC(=O)c2csc(n2)[C@@H]([C@@H](C)CC)NC(=O)c2csc(n2)CNC(=O)[C@H]2N=C1O[C@@H]2C` [AERUCYCLAMIDE B] stands 33.8 µM.
